From ChEMBL document CHEMBL5728360, “Oxazole derivatives for use in the treatment of cancer” (2021)

Test: Biochemical Assay : 5 μl WT full length PAICS (final assay concentration, fac, 2.5 nM) in basic buffer, added to black, non-binding, 384-well plates (Corning #3575), columns 1 to 22. 5 μl basic buffer was added to columns 23+24 (negative control). PAICS stock at 31.9 μM from the PI's lab (Steve Firestine). Basic buffer contained 50 mM Tris-HCl pH8 and 0.5 mM EDTA, fac.1 μl compound in 100% DMSO added per well, or 1 μl 100% DMSO to positive controls (columns 1+2) and negative controls (columns 23+24). Final assay top concentration of compound either 1 mM or 30-μM, serially diluted with half-log dilutions across the plate in duplicate (one 10-point concentration response curve across wells 3 to 12, another across 13 to 22). Compounds pre-incubated with PAICS enzyme for 30 mins at RT. 2 μl CAIR added (fac 10 μM) in basic buffer plus 25 mM MgCl2 and 50 mM KHCO3 fac to all wells. CAIR stock 50 mM from Steve Firestine's lab. 1 hr RT incubation for AIR-CAIR equilibration. NB: ˜50% CAIR is decarboxylated during equilibration therefore 5 μM remains for the synthetase reaction.2 μl ATP/aspartic acid added (fac 30 μM/180 μM) in reaction buffer to all wells. 30 mins RT incubation for appropriate level of ATP turnover. […]

Structure (SMILES): Nc1nc(C(=O)Nc2cc(N3CCN(C(=O)OCC4CNC4)CC3)ccc2Cl)co1
- IC50: > 100 nM
